Consider 21 compounds from ChEMBL document CHEMBL1201862, “PubChem BioAssay data set” (2004).

Active and inactive are the calls of the source.

One data set deals with T1, Estrogen receptor (Homo sapiens, UniProt P03372).
T1 sequence (P03372 whole entry): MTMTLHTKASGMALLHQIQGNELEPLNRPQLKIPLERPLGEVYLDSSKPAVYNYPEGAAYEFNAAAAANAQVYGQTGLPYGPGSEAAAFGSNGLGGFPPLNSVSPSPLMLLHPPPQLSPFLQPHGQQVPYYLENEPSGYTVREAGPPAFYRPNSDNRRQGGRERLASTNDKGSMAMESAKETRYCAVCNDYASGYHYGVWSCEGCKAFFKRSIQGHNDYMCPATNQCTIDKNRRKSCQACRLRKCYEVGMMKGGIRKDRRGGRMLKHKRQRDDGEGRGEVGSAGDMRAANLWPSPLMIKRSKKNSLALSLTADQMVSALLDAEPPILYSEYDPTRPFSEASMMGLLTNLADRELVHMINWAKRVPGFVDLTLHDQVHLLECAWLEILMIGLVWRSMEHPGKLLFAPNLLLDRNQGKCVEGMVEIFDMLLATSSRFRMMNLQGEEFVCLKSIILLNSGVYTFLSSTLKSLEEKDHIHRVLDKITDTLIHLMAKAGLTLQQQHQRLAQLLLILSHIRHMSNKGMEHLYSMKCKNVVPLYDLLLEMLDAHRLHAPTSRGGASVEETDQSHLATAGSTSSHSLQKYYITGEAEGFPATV

The nature of data set [1]: P. falciparum Dd2 growth inhibitors, dose response, SYBR Green, cherry-picked samples (AID 1159567). It counts as functional, cell-based.
In data set [2] the target is Glucose-6-phosphate 1-dehydrogenase (Homo sapiens, UniProt P11413). Description: inhibition of Homo sapiens G6PD, dose series – biochemical, fluorescence, selectivity assay for P. falciparum G6PD inhibitor project, dose response (AID 504792). Format: functional.
In data set [3] the target is T2, Replicative DNA helicase DnaB (Mycobacterium tuberculosis, UniProt P9WMR3).
T2 sequence (P9WMR3 whole entry): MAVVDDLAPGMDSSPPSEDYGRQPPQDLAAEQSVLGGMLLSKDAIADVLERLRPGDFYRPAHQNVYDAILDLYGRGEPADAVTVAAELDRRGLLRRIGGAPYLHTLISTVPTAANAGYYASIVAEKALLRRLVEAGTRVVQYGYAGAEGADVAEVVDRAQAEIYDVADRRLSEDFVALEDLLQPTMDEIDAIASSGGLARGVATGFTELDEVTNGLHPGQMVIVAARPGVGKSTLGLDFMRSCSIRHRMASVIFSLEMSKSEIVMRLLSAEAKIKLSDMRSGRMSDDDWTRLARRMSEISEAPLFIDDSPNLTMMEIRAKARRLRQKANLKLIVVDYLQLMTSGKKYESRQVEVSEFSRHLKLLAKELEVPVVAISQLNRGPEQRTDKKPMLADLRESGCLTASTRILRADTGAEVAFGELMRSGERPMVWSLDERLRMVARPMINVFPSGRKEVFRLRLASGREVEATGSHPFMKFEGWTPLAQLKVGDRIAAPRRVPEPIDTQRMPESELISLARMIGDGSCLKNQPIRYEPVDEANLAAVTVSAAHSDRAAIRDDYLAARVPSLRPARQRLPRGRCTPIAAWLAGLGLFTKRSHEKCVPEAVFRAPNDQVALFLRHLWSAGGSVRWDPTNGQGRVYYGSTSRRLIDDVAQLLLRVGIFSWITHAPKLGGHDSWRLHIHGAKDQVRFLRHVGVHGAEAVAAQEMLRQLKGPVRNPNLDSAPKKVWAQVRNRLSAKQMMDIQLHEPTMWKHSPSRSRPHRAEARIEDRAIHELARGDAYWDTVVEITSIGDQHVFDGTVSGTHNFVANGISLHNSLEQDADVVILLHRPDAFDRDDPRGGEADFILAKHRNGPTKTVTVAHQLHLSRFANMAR
Description: DnaB intein splicing inhibitors, dose response, biochemical, cell-free fluorescence (AID 449749). It counts as functional.

Another data set has as its target T3, Protein RecA (Mycobacterium tuberculosis, UniProt P9WHJ3).
T3 sequence (P9WHJ3 whole entry): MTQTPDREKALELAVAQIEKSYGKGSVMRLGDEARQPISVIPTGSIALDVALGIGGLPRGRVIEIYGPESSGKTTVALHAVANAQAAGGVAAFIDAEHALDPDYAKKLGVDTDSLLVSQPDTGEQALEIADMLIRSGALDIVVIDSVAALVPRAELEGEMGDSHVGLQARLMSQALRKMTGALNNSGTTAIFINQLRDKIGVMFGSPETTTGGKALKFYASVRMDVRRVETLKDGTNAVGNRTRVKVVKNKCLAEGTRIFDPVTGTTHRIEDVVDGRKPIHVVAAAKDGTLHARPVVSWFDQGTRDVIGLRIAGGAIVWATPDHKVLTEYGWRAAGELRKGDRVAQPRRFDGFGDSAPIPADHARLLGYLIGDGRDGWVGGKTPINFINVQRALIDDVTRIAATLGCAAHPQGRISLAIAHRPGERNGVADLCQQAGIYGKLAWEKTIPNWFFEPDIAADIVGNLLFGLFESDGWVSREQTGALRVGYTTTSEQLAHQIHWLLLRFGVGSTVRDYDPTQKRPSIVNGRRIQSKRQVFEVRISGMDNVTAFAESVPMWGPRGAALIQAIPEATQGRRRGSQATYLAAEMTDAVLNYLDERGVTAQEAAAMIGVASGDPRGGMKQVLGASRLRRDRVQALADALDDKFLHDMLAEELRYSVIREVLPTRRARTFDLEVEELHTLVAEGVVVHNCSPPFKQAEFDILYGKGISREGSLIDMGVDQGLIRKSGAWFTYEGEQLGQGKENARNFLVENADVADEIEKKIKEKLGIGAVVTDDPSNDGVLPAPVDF
Briefly: Fluorescence Cell-Free Homogeneous Dose Retest to Identify Inhibitors of RecA-Intein Splicing Activity. [Related pubchem assays (depositor defined):AID2097, AID2223, AID489010, AID492950]. It counts as functional.

Data set [4] can be described thus: viability loss in THP-1 monocytes – THP-1 cells, cytotoxicity control for Vif-APOBEC3G degradation inhibitor project, dose response (AID 1117359). Format: functional. Particulars: THP-1.
Another data set deals with Cytochrome P450 2D6 (Homo sapiens, UniProt P10635).
Another data set deals with Cytochrome P450 3A4 (Homo sapiens, UniProt P08684).
A short description of data set [5]: blockers of HIV-1 envelope-mediated cell-cell fusion – cherry-pick, dose response (AID 652057). Format: functional, cell-based.
Data set [6] is described as follows: blockers of HIV-1 ZM109 envelope-driven cell-cell fusion – HeLa effector, CEM target cells, luciferase, cherry-pick, dose response (AID 652058).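 Further: luciferase signal from HIV-1 Env mediated cell-cell fusion of effector and target cells.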 Format: functional, cell-based.
Data set [7] is described as follows: off-target signal loss in HeLa-CEM21 co-culture – HeLa F-luc CTL cells, cherry-picked, counter-screen for HIV-1 Env fusion inhibitor project, dose response (AID 652040).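 Further: potency for signal decrease marking cytotoxic or nonspecific inhibition.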 It counts as functional, cell-based. (A counterscreen serves to expose hits that act by an unwanted route or on another target.)
A short description of data set [8]: HIV-1 AD8 envelope cell-cell fusion blockers – cherry-pick, dose response (AID 652062).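 Further: luciferase signal from cell-cell fusion driven by HIV-1 clade B AD8 Env; potency is for inhibitors of fusion seen as a drop in luminescence.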 It counts as functional, cell-based.
In data set [9] the target is T4, Carboxy-terminal domain RNA polymerase II polypeptide A small phosphatase 1 (Homo sapiens, UniProt Q9GZU7).
T4 sequence (Q9GZU7 whole entry): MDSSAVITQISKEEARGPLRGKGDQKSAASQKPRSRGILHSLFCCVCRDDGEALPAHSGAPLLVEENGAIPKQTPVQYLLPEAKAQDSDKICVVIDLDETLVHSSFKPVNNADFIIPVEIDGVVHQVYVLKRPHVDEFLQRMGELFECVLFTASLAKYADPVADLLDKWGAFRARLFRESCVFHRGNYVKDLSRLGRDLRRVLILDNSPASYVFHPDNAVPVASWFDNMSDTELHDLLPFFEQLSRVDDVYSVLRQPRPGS
Briefly: CTDSP1 inhibitors, concentration-response, biochemical, absorbance readout, ultra-high-throughput screen actives (AID 540297). Format: functional.

Data set [10] can be described thus: microbe, parasite or virus in culture. It counts as functional. Particulars: Mycobacterium tuberculosis.
Data set [11] in a line: Luminescence Cell-Based Dose Retest to Confirm Inhibitors of Cancer Stem Cells. [Related pubchem assays (depositor defined):AID2717, AID2721]. It counts as functional. The note with it: Homo sapiens.
A further data set can be described thus: cells. It counts as functional, cell-based.
Data set [12] has as its target T5, Nuclear receptor subfamily 0 group B member 1 (Homo sapiens, UniProt P51843).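 Further: HEK293T cells transfected with SF-1 and DAX-1 plus StAR promoter luciferase reporter.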
T5 sequence (P51843 whole entry): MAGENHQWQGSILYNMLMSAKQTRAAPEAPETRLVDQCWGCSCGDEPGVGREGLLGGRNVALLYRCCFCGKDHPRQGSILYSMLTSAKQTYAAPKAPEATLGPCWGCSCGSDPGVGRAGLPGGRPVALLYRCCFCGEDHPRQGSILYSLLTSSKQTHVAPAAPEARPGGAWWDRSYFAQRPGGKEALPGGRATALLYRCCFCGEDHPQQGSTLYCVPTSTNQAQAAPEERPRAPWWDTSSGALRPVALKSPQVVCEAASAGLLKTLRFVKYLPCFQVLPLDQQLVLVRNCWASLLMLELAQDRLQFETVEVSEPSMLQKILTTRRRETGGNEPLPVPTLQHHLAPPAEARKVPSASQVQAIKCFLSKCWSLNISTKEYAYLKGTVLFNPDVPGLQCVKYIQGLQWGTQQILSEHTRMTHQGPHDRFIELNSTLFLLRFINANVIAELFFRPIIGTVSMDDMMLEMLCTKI
It counts as functional, cell-based.

Data set [13] is described as follows: viability of PTEN-deleted HCT116 cells – cell-based, HCT116 PTEN knockout, dose response (AID 1047).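 Further: HCT116 colon tumor cells with PTEN knocked out; cells exposed to compound for 60 hours before readout; potency for loss of cell viability measured by luminescence.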 It counts as functional.
Data set [14] in a line: viability of HCT116 lacking mutant beta-catenin – cell-based, human colon tumor, dose response (AID 1045).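 Further: HCT116 colon tumor cells with beta catenin knocked out; cells exposed to compound for 60 hours.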 It counts as functional.

Glucose-6-phosphate 1-dehydrogenase, sequence (P11413 whole entry): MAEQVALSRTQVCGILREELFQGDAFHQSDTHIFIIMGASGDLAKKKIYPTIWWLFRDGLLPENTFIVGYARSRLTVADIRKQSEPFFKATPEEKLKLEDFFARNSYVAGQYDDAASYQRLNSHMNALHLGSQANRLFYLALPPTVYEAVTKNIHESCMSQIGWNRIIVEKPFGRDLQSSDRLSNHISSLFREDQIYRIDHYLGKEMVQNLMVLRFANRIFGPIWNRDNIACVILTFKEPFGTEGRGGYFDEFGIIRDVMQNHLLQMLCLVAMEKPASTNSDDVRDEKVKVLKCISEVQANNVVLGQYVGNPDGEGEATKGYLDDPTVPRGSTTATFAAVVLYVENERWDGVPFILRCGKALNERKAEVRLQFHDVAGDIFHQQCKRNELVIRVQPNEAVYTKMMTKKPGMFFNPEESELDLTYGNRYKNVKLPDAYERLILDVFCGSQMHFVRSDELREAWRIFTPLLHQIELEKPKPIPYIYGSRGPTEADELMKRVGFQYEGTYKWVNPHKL
Cytochrome P450 2D6, sequence (P10635 whole entry): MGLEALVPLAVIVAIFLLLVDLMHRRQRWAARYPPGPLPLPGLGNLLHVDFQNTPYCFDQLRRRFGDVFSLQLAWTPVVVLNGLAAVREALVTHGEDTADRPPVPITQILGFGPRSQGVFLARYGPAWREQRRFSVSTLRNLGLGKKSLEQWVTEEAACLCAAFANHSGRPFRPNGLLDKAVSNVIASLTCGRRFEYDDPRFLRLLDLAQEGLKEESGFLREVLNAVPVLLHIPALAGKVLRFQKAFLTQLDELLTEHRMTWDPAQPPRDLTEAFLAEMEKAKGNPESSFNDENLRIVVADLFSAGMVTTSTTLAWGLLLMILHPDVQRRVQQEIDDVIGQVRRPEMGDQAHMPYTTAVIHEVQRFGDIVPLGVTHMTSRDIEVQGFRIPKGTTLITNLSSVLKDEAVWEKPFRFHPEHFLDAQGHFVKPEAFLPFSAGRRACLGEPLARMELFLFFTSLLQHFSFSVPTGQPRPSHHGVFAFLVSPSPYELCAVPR
Cytochrome P450 3A4, sequence (P08684 whole entry, the tested form may be a part): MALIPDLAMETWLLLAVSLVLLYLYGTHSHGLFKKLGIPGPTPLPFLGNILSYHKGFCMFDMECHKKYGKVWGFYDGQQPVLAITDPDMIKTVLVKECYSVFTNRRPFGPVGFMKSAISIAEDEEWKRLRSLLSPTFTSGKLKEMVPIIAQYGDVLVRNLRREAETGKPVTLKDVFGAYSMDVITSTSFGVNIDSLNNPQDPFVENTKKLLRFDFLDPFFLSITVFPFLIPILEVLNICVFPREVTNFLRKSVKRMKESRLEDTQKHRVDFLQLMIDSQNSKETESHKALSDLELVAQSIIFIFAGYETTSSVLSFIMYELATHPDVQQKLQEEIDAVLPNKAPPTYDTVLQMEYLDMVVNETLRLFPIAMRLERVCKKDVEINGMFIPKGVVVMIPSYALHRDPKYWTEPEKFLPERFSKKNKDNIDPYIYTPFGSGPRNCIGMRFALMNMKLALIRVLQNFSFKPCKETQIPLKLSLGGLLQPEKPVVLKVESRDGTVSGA

For `Oc1ccc(C2c3sc(O)nc3SC3C4CCC(C4)C23)cc1` (stereo not given), the 50% inhibitory concentration (IC50) against Estrogen receptor is > 50 µM (not active).
The same measure, in the same setting: the same measure for `COC(=O)c1cc(NC(=O)Cn2c(=O)cnc3ccccc32)cc(C(=O)OC)c1`: > 50 µM (not active).
Consider `CCC(=O)N1CCC2(CC1)CN(Cc1cccc(Cl)c1)[C@H](CO)c1c2c2ccc(OC)cc2n1C`, for which the half-maximal activity concentration (AC50) in data set [1] is 4.8 µM (active).
Turning to `CC1(C)Cc2c(sc3c4nnnn4c4nnnn4c23)CO1`, the IC50 on Estrogen receptor is 4.11 µM (active).
`CCOc1ccccc1CNc1ccc(O)cc1`: the IC50 in [2] is > 80 µM (inactive). For the same compound, the AC50 in data set [3] was > 380 µM (inactive). For the same compound, the EC50 at Protein RecA is 14 µM (active).
In the case of `NCCc1c[nH]c2ccccc12` [TRYPTAMINE], the CC50 in [4] is > 40 µM (active). Also, the values for the AC50 on Cytochrome P450 2D6 and at Cytochrome P450 3A4 were 31.6 µM (inconclusive) and “inconclusive”, respectively.
In the case of `COc1cccc(NC(=O)N2CC(=O)N3[C@H](CO)[C@@H](c4ccc(C#CCC5CCCC5)cc4)[C@H]3C2)c1`, the half-maximal activity concentration (AC50) in [1] is 8.6 µM (active).
As for `Cc1cc(NC(=O)CCC(=O)N(C2CC2)C2(C(=O)NC3CCCC3)CCC(C)CC2)no1` (stereo not given), the AC50 is 5.4 µM (active) in data set [5], 3.3 µM (active) in data set [6], 6.16 µM (active) in data set [7] and 13.4 µM (active) in [8].
Regarding `Cc1nnc(SCC(=O)NC(=O)NCc2ccco2)n1Cc1ccccc1`, the IC50 on Estrogen receptor was < 1.56 µM (active); in data set [9], 5.15 µM (active).
With `COc1ccc(C#Cc2ccc3c(c2)[C@H]2[C@H](CCN2C(=O)C2CCC2)[C@H](CO)N3)cc1`, in data set [1], the AC50 is 3.3 µM (active).
`Cc1ccc(-c2cc(-c3ccccc3C)[nH]n2)c(O)c1`: the CC50 in data set [10] was > 40 µM (active). The concentration at half-maximal activity (AC50) in [11] was 7.98 µM (active).
As to `CN1C(=O)CSc2ccc(NC(=O)N3CCc4ccccc43)cc21`, the IC50 in data set [2] is > 80 µM (inactive); in the data set “cells” it was > 67.5 µM (inactive); in [12], > 67.5 µM (inactive).
For `COc1ccc(NC(=O)/C(C#N)=C\c2ccc(Br)o2)cc1`, in data set [4], the CC50 was 3.4 µM (active).
In the case of `CN1CCN(c2cc(-c3ccccc3)nc3cc(-c4ccc(F)cc4)nn23)CC1`, the CC50 in [10] is 11.7 µM (active). Further, the EC50 is 10.6 µM (active) in [13] and 9.14 µM (active) in [14].
On to `FC(F)(F)c1cccc(CN2[C@@H]3CNC[C@H]2[C@@H]3c2ccc(-c3cccnc3)cc2)c1`, for which the AC50 in data set [1] was 4.42 µM (active).
Turning to `CC[C@@]12C(=O)N(c3ccccc3)C(=O)N1[C@H](c1cccc(C)c1)[C@@H]1C(=O)N(Cc3ccccc3)C(=O)[C@@H]12`, the AC50 in data set [5] was 3.83 µM (active); in [6], 3.8 µM (active); in data set [7] it was 4.02 µM (active); in data set [8] it was 5.26 µM (active).
For the compound `CC(=O)C1=C(C)N(Cc2ccc(Cl)cc2)C(=S)NC1c1cccc(Br)c1` (stereo not given), the AC50 is 5.96 µM (active) in data set [5], 4.16 µM (active) in data set [6], 15.9 µM (active) in [7] and 22.6 µM (active) in data set [8].
`CCOC(=O)N1CCc2c(sc(NC(=O)c3ccc(Cl)s3)c2C(N)=O)C1`: in data set [10], the CC50 was 17.3 µM (active). Besides, the EC50 in data set [13] was 15.7 µM (active); in data set [14] it was 19.4 µM (active).
In the case of `CC[C@]1(C(=O)OC)[C@H]2C(=O)N(Cc3ccccc3)C(=O)[C@H]2[C@H]2CN=C(SCC3CC3)N21`, the AC50 in [5] is 1.12 µM (active); in [6], 1.45 µM (active); in data set [7], 2.66 µM (active); in data set [8], 5.46 µM (active).
For `O=C(NCCc1ccc(Cl)cc1)c1ccc(C[S+]([O-])Cc2ccc(Cl)cc2)o1` (stereo not given), in data set [10], the CC50 is > 40 µM (active).
As to `Oc1nnc(Cc2ncc(C(F)(F)F)cc2Cl)c2ccccc12`, the CC50 in [4] is > 40 µM (active).

In general, IC50 refers to the point on the concentration scale where inhibition reaches its midpoint. As a reminder, the AC50 is the midpoint of the concentration-response curve, whichever way the signal moves. One may read the EC50 as the midpoint of the concentration-response curve.
